Laboratory results published in the NIST ThermoML archive (doi:10.1021/je030191w).
± gives the expanded uncertainty stated by the source.

Assay: xn = mol fraction of the nth substance listed
Conditions: 101 kPa, Liquid

## CCn1cc[n+](C)c1.F[B-](F)(F)F [1-ethyl-3-methylimidazolium tetrafluoroborate] + O
293.15 K, x2 = 0
  mass density: 1340.7 ± 50 kg/m3
  viscosity: 45.29 ± 2.9 mPa·s
293.15 K, x2 = 0.0995
  mass density: 1336.1 ± 50 kg/m3
  viscosity: 34.43 ± 2.3 mPa·s
293.15 K, x2 = 0.2062
  mass density: 1330 ± 50 kg/m3
  viscosity: 25.1 ± 1.7 mPa·s
293.15 K, x2 = 0.3047
  mass density: 1322.9 ± 50 kg/m3
  viscosity: 19.25 ± 1.3 mPa·s
293.15 K, x2 = 0.4034
  mass density: 1313.4 ± 50 kg/m3
  viscosity: 13.76 ± 0.98 mPa·s
293.15 K, x2 = 0.5034
  mass density: 1299.8 ± 50 kg/m3
  viscosity: 10.36 ± 0.77 mPa·s
293.15 K, x2 = 0.5998
  mass density: 1284.2 ± 50 kg/m3
  viscosity: 7.892 ± 0.61 mPa·s
293.15 K, x2 = 0.7005
  mass density: 1262 ± 50 kg/m3
  viscosity: 5.797 ± 0.48 mPa·s
293.15 K, x2 = 0.8011
  mass density: 1225.9 ± 50 kg/m3
  viscosity: 4.127 ± 0.36 mPa·s
293.15 K, x2 = 0.9027
  mass density: 1157.4 ± 50 kg/m3
  viscosity: 3.035 ± 0.27 mPa·s
298.15 K, x2 = 0
  mass density: 1336.7 ± 50 kg/m3
  viscosity: 37.19 ± 2.4 mPa·s
298.15 K, x2 = 0.0995
  mass density: 1332.1 ± 50 kg/m3
  viscosity: 29.02 ± 1.9 mPa·s
298.15 K, x2 = 0.2062
  mass density: 1326 ± 50 kg/m3
  viscosity: 21.01 ± 1.4 mPa·s
298.15 K, x2 = 0.3047
  mass density: 1318.9 ± 50 kg/m3
  viscosity: 15.96 ± 1.1 mPa·s
298.15 K, x2 = 0.4034
  mass density: 1309.5 ± 50 kg/m3
  viscosity: 11.45 ± 0.84 mPa·s
298.15 K, x2 = 0.5034
  mass density: 1296 ± 50 kg/m3
  viscosity: 8.597 ± 0.66 mPa·s
298.15 K, x2 = 0.5998
  mass density: 1280.6 ± 50 kg/m3
  viscosity: 6.975 ± 0.56 mPa·s
298.15 K, x2 = 0.7005
  mass density: 1258.4 ± 50 kg/m3
  viscosity: 4.822 ± 0.42 mPa·s
298.15 K, x2 = 0.8011
  mass density: 1222.3 ± 50 kg/m3
  viscosity: 3.499 ± 0.31 mPa·s
298.15 K, x2 = 0.9027
  mass density: 1154.2 ± 50 kg/m3
  viscosity: 2.584 ± 0.23 mPa·s
303.15 K, x2 = 0
  mass density: 1332.9 ± 50 kg/m3
  viscosity: 31.36 ± 2.1 mPa·s
303.15 K, x2 = 0.0995
  mass density: 1328.3 ± 50 kg/m3
  viscosity: 24.8 ± 1.7 mPa·s
303.15 K, x2 = 0.2062
  mass density: 1322.2 ± 50 kg/m3
  viscosity: 17.9 ± 1.2 mPa·s
303.15 K, x2 = 0.3047
  mass density: 1315.2 ± 50 kg/m3
  viscosity: 13.58 ± 0.97 mPa·s
303.15 K, x2 = 0.4034
  mass density: 1305.8 ± 50 kg/m3
  viscosity: 9.674 ± 0.72 mPa·s
303.15 K, x2 = 0.5034
  mass density: 1292.3 ± 50 kg/m3
  viscosity: 7.384 ± 0.58 mPa·s
303.15 K, x2 = 0.5998
  mass density: 1276.9 ± 50 kg/m3
  viscosity: 5.492 ± 0.47 mPa·s
303.15 K, x2 = 0.7005
  mass density: 1254.8 ± 50 kg/m3
  viscosity: 3.896 ± 0.34 mPa·s
303.15 K, x2 = 0.8011
  mass density: 1218.7 ± 50 kg/m3
  viscosity: 2.962 ± 0.27 mPa·s
303.15 K, x2 = 0.9027
  mass density: 1151.1 ± 50 kg/m3
  viscosity: 2.189 ± 0.2 mPa·s
308.15 K, x2 = 0
  mass density: 1329.6 ± 50 kg/m3
  viscosity: 25.56 ± 1.7 mPa·s
308.15 K, x2 = 0.0995
  mass density: 1324.9 ± 50 kg/m3
  viscosity: 20.53 ± 1.4 mPa·s
308.15 K, x2 = 0.2062
  mass density: 1318.9 ± 50 kg/m3
  viscosity: 14.58 ± 1 mPa·s
308.15 K, x2 = 0.3047
  mass density: 1311.9 ± 50 kg/m3
  viscosity: 10.93 ± 0.8 mPa·s
308.15 K, x2 = 0.4034
  mass density: 1302.5 ± 50 kg/m3
  viscosity: 8.187 ± 0.63 mPa·s
308.15 K, x2 = 0.5034
  mass density: 1288.9 ± 50 kg/m3
  viscosity: 6.409 ± 0.52 mPa·s
308.15 K, x2 = 0.5998
  mass density: 1273.5 ± 50 kg/m3
  viscosity: 4.707 ± 0.41 mPa·s
308.15 K, x2 = 0.7005
  mass density: 1251.4 ± 50 kg/m3
  viscosity: 3.531 ± 0.31 mPa·s
308.15 K, x2 = 0.8011
  mass density: 1215.4 ± 50 kg/m3
  viscosity: 2.555 ± 0.23 mPa·s
308.15 K, x2 = 0.9027
  mass density: 1148 ± 50 kg/m3
  viscosity: 1.898 ± 0.17 mPa·s
313.15 K, x2 = 0
  mass density: 1325.9 ± 50 kg/m3
  viscosity: 21.54 ± 1.5 mPa·s
313.15 K, x2 = 0.0995
  mass density: 1321.2 ± 50 kg/m3
  viscosity: 17.96 ± 1.2 mPa·s
313.15 K, x2 = 0.2062
  mass density: 1315.2 ± 50 kg/m3
  viscosity: 12.68 ± 0.91 mPa·s
313.15 K, x2 = 0.3047
  mass density: 1308.1 ± 50 kg/m3
  viscosity: 9.634 ± 0.72 mPa·s
313.15 K, x2 = 0.4034
  mass density: 1298.7 ± 50 kg/m3
  viscosity: 7.165 ± 0.57 mPa·s
313.15 K, x2 = 0.5034
  mass density: 1285.3 ± 50 kg/m3
  viscosity: 5.465 ± 0.46 mPa·s
313.15 K, x2 = 0.5998
  mass density: 1269.7 ± 50 kg/m3
  viscosity: 4.159 ± 0.36 mPa·s
313.15 K, x2 = 0.7005
  mass density: 1247.5 ± 50 kg/m3
  viscosity: 3.133 ± 0.28 mPa·s
313.15 K, x2 = 0.8011
  mass density: 1211.8 ± 50 kg/m3
  viscosity: 2.267 ± 0.21 mPa·s
313.15 K, x2 = 0.9027
  mass density: 1145 ± 50 kg/m3
  viscosity: 1.689 ± 0.16 mPa·s
318.15 K, x2 = 0
  mass density: 1322.2 ± 50 kg/m3
  viscosity: 18.84 ± 1.3 mPa·s
318.15 K, x2 = 0.0995
  mass density: 1317.6 ± 50 kg/m3
  viscosity: 15.93 ± 1.1 mPa·s
318.15 K, x2 = 0.2062
  mass density: 1311.6 ± 50 kg/m3
  viscosity: 11.16 ± 0.82 mPa·s
318.15 K, x2 = 0.3047
  mass density: 1304.5 ± 50 kg/m3
  viscosity: 8.324 ± 0.64 mPa·s
318.15 K, x2 = 0.4034
  mass density: 1295 ± 50 kg/m3
  viscosity: 6.357 ± 0.52 mPa·s
318.15 K, x2 = 0.5034
  mass density: 1281.6 ± 50 kg/m3
  viscosity: 4.979 ± 0.43 mPa·s
318.15 K, x2 = 0.5998
  mass density: 1266 ± 50 kg/m3
  viscosity: 3.63 ± 0.32 mPa·s
318.15 K, x2 = 0.7005
  mass density: 1243.9 ± 50 kg/m3
  viscosity: 2.584 ± 0.23 mPa·s
318.15 K, x2 = 0.8011
  mass density: 1208.2 ± 50 kg/m3
  viscosity: 2.044 ± 0.19 mPa·s
318.15 K, x2 = 0.9027
  mass density: 1141.8 ± 50 kg/m3
  viscosity: 1.53 ± 0.14 mPa·s
323.15 K, x2 = 0
  mass density: 1319.5 ± 50 kg/m3
  viscosity: 15.9 ± 1.1 mPa·s
323.15 K, x2 = 0.0995
  mass density: 1314.8 ± 50 kg/m3
  viscosity: 13.74 ± 0.98 mPa·s
323.15 K, x2 = 0.2062
  mass density: 1308.8 ± 50 kg/m3
  viscosity: 9.797 ± 0.73 mPa·s
323.15 K, x2 = 0.3047
  mass density: 1301.6 ± 50 kg/m3
  viscosity: 7.47 ± 0.59 mPa·s
323.15 K, x2 = 0.4034
  mass density: 1292 ± 50 kg/m3
  viscosity: 5.692 ± 0.48 mPa·s
323.15 K, x2 = 0.5034
  mass density: 1278.6 ± 50 kg/m3
  viscosity: 4.522 ± 0.4 mPa·s
323.15 K, x2 = 0.5998
  mass density: 1263.1 ± 50 kg/m3
  viscosity: 3.215 ± 0.29 mPa·s
323.15 K, x2 = 0.7005
  mass density: 1240.7 ± 50 kg/m3
  viscosity: 2.512 ± 0.23 mPa·s
323.15 K, x2 = 0.8011
  mass density: 1205 ± 50 kg/m3
  viscosity: 1.904 ± 0.18 mPa·s
323.15 K, x2 = 0.9027
  mass density: 1138.5 ± 50 kg/m3
  viscosity: 1.439 ± 0.14 mPa·s
